Measurements published in patent US20110224204A1, “DI-SUBSTITUTED PHENYL COMPOUNDS” (priority 2008, published 2011).

Key:
[1] = rats; cited from earlier work
Human PDE10A1 = Human PDE10A1 (Homo sapiens, UniProt Q9Y233); test: hPDE10A1 Enzyme Inhibition; format: biochemical; conditions: [3H]-cAMP substrate; read-out: hPDE10A1 IC50 Band
Description: hPDE10A1 Enzyme Activity: 50 μl samples of serially diluted Human PDE10A1 enzyme were incubated with 50 μl of [^3H]-cAMP for 20 minutes (at 37° C.). Reactions were carried out in Greiner 96 deep well 1 ml master-block. The enzyme was diluted in 20 mM Tris HCl pH7.4 and [^3H]-cAMP was diluted in 10 mM MgCl2, 40 mM Tris.HCl pH 7.4. The reaction was terminated by denaturing the PDE enzyme (at 70° C.) after which [^3H]-5′-AMP was converted to [^3H]-adenosine by adding 25 μl snake venom nucleotidase and incubating for 10 minutes (at 37° C.). Adenosine, being neutral, was separated from charged cAMP or AMP by the addition of 200 μl Dowex resin. Samples were shaken for 20 minutes then centrifuged for 3 minutes at 2,500 r.p.m. 50 μl of supernatant was removed and added to 200 μl of MicroScint-20 in white plates (Greiner 96-well Optiplate) and shaken for 30 minutes before reading on Perkin Elmer TopCount Scintillation Counter.
hPDE10A1 Enzyme Inhibition: To check inhibition profile 11 μl of serially diluted inhibitor was added to 50 μl of [^3H]-cAMP and 50 ul of diluted Human PDE10A1 and assay was carried out as in the enzyme activity assay. Data was analysed using Prism software (GraphPad Inc).

Chain of Human PDE10A1 (Q9Y233 1-779 isoform Q9Y233-1): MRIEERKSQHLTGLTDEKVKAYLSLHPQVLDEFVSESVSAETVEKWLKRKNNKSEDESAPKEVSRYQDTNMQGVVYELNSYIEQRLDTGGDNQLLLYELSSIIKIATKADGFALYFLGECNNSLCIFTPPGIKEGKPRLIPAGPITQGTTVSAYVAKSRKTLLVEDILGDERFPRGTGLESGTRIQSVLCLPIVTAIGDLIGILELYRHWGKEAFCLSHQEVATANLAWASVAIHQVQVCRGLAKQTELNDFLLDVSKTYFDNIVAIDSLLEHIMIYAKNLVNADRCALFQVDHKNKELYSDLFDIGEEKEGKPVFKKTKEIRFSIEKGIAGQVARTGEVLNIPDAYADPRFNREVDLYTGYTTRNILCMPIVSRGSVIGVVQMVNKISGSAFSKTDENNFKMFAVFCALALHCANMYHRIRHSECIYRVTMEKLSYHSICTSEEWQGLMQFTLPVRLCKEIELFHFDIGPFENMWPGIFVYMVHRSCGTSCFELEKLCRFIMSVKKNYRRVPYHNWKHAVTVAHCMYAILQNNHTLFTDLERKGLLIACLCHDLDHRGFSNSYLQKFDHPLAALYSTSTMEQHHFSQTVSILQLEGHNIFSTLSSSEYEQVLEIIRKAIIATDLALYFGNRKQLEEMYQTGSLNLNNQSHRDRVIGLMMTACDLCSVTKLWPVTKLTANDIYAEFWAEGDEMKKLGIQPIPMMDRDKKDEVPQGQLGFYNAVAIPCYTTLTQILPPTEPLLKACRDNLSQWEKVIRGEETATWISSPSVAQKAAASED

Compound | IC50 (Human PDE10A1) | other results
COc1ccc(Cc2nccc3cc(OC)c(OC)cc23)cc1OC [papaverine] |  | apomorphine induced stereotypies [1]: reduces; haloperidol induced catalepsy [1]: increases; rat brain dopamine levels [1]: reduces
N#Cc1ccc(-c2ccc(OCc3ccc4ccccc4n3)cc2)c(-c2ccncc2)c1 [Example 1885, 2-(Pyridin-4-yl)-4′-(quinolin-2-ylmethoxy)biphenyl-4-carbonitrile] | > 50 nM | melting point: 190 to 193 °C
N#Cc1cc(-c2ccccc2-c2ccc(OCc3ccc4ccccc4n3)cc2)ccc1Cl [Example 1855] | ≤ 50 nM | 

More lines, main results first:

IC50 (Human PDE10A1) | Compound | other results
> 50 nM | c1cc(-c2ccncc2)c(-c2ccc(OCc3ccc4ccccc4n3)cc2)c(N2CCOCC2)c1 [Example 1873, 4-(6-(pyridin-4-yl)-4′-(quinolin-2-ylmethoxy)biphenyl-2-yl)morpholine] | 
≤ 50 nM | Fc1ccc(-c2ccncc2)c(-c2ccc(OCc3ccc4ccccc4n3)cc2)c1 [Example 404, 2-((5′-fluoro-2′-(pyridin-4-yl)biphenyl-4-yloxy)methyl)quinoline] | 
